Values quoted from earlier work as cited in paper PMC7463651, “Phase I/Ib Study of Tenalisib (RP6530), a Dual PI3K δ/γ Inhibitor in Patients with Relapsed/Refractory T-Cell Lymphoma” (Cancers, 2020).

Assays:
[1] = test system: malignant patient derived primary CTCL cells; set-up: method as in ref 18 = [18]; 18. Mao G. Viswanadha S. Rhizen, Switzerland Unpublished work 2013; conditions: cited from earlier work
PI3K δ/γ = conditions: cited from earlier work

Structure (SMILES): CC[C@H](Nc1ncnc2[nH]cnc12)c1oc2ccccc2c(=O)c1-c1cccc(F)c1 [Tenalisib]
- Ex-vivo activity [1]: shown ex-vivo activity
- Inhibitory potency (PI3K δ/γ; PI3K δ/γ): nanomolar
- Selectivity over α and β PI3K isoforms (PI3K δ/γ): several fold
